ChEMBL document CHEMBL1201862, “PubChem BioAssay data set” (2004)
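A five-concentration, 48-hour dose response in 96-well plates underlies each endpoint, interpolated linearly between surrounding concentrations. GI50 = concentration required for 50% inhibition of growth.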 Active and inactive are the calls of the source. Rule as the data show it: active = GI50 up to about 1.1 µM and inactive = higher.

How the values were obtained:
Test in all cases: inhibition of tumour cell growth, NCI panel, 48 h
786-0 = system: 786-0
ACHN = system: ACHN
CAKI-1 = system: CAKI-1
CCRF-CEM = system: CCRF-CEM
HCT-15 = system: HCT-15
HOP-62 = system: HOP-62
HT-29 = system: HT-29
K562 = system: K562
LOX IMVI = system: LOX IMVI
MDA-N = system: MDA-N
MOLT-4 = system: MOLT-4
Malme-3M = system: Malme-3M
NCI/ADR-RES = system: NCI/ADR-RES
OVCAR-8 = system: OVCAR-8
RXF 393 = system: RXF 393
SF-295 = system: SF-295
SK-MEL-28 = system: SK-MEL-28
SK-MEL-2 = system: SK-MEL-2
SN12C = system: SN12C
A498 = system: A498

Row | SMILES | GI50 (786-0) | GI50 (ACHN) | GI50 (CAKI-1) | GI50 (CCRF-CEM) | GI50 (HCT-15) | GI50 (HOP-62) | GI50 (HT-29) | GI50 (K562) | GI50 (LOX IMVI) | GI50 (MDA-N) | GI50 (MOLT-4) | GI50 (Malme-3M) | GI50 (NCI/ADR-RES) | GI50 (OVCAR-8) | GI50 (RXF 393) | GI50 (SF-295) | GI50 (SK-MEL-28) | GI50 (SK-MEL-2) | GI50 (SN12C) | GI50 (A498)
1 | Cn1cnc2c(OCC3CCCCC3)nc(N)nc21 | > 100 µM (inactive) | < 0.01 µM (active) | > 100 µM (inactive) | > 100 µM (inactive) | > 100 µM | > 100 µM (inactive) | 73.8 µM (inactive) | > 100 µM (inactive) | 66.1 µM (inactive) | > 100 µM (inactive) | > 100 µM (inactive) | > 100 µM (inactive) | > 100 µM (inactive) | > 100 µM (inactive) | > 100 µM (inactive) | > 100 µM (inactive) | > 100 µM (inactive) | > 100 µM (inactive) | > 100 µM (inactive) | –
2 | OC(c1cccs1)c1cc2ccccc2s1 (stereo not drawn) | > 10 µM (inactive) | > 10 µM (inactive) | > 10 µM (inactive) | > 10 µM (inactive) | > 10 µM | > 10 µM (inactive) | > 10 µM (inactive) | > 10 µM (inactive) | > 10 µM (inactive) | > 10 µM (inactive) | > 10 µM (inactive) | – | > 10 µM (inactive) | > 10 µM (inactive) | > 10 µM (inactive) | > 10 µM (inactive) | > 10 µM (inactive) | > 10 µM (inactive) | > 10 µM (inactive) | –
3 | Cc1ccc2nc(Cl)c(/C=N/N3C(=O)/C(=C/c4ccccc4S)N=C3c3ccccc3)cc2c1 | 54 µM (inactive) | 46.6 µM (inactive) | 44.6 µM (inactive) | 15.5 µM (inactive) | 37.8 µM | 27.7 µM (inactive) | 42.8 µM (inactive) | 11.7 µM (inactive) | 34.8 µM (inactive) | 17 µM (inactive) | 1.85 µM (inactive) | – | 22.9 µM (inactive) | 47.8 µM (inactive) | – | 25.3 µM (inactive) | > 100 µM (inactive) | 20.4 µM (inactive) | 35.7 µM (inactive) | 29.5 µM (inactive)
4 | O=C1NC2ON=C(c3ccccc3)C2C2ON=C(c3ccccc3)N12 (stereo not drawn) | > 100 µM (inactive) | > 100 µM (inactive) | > 100 µM (inactive) | – | 43.4 µM | > 100 µM (inactive) | 41.2 µM (inactive) | – | 90.4 µM (inactive) | 39.6 µM (inactive) | – | > 100 µM (inactive) | 45.9 µM (inactive) | 64.6 µM (inactive) | > 100 µM (inactive) | > 100 µM (inactive) | – | – | – | –
